# Source: patent publication US20230130066A1, “USE OF CYCLODEXTRINS IN DISEASES AND DISORDERS INVOLVING PHOSPHOLIPID DYSREGULATION” (priority 2017, published 2023)
# Where “and” joins values, the source holds several entries; their conditions need not be identical. Equal entries are not always repeated. Where two headings read alike, the source gives them in different places. Marks after values point to notes of the source that are not given here.
# Legend:
# [1] = even in the relative absence of cholesterol; cited from earlier work
# [2] = tested on: BBB; settings: cited from earlier work
# [3] = tested on: H7 Lewis lung cancer cell lines; settings: three H7 Lewis lung cancer cell lines; cited from earlier work
# [4] = biological target: T1, α-synuclein (Homo sapiens, UniProt P37840); parameters: expressed in transfected cells; host or cells: HeLa cells; settings: HeLa cells, 20 mM, 1 hr; cited from earlier work
# [5] = tested on: H7-O Lewis lung cancer cells; settings: mice implanted with H7-O Lewis lung cancer cells; cited from earlier work
# [6] = biological target: T2, a-syn (Homo sapiens, UniProt P37840); settings: transfected cells, immunoblot; cited from earlier work
# T2 construct: expressed in transfected cells
# [7] = tested on: NPC cells; settings: cited from earlier work
# [8] = tested on: MCF7 BC cells; settings: cited from earlier work
# [9] = tested on: primary effusion lymphoma (PEL); settings: mice; cited from earlier work
# [10] = 12 mM cyclodextrin, 5 μM A2E, blue-light irradiation or 1 d in the dark; cited from earlier work
# [11] = tested on: MDA-MB-231 BC cells; settings: independently of cholesterol; cited from earlier work
# [12] = tested on: BC; settings: in vivo; cited from earlier work
# [13] = tested on: Aβ; settings: rat hippocampal neurons infected with SFV carrying APP; cited from earlier work
# [14] = biological target: T1, α-synuclein; parameters: from tissue; host or cells: brain of hα-syn transgenic mice; settings: mice; cited from earlier work
# [15] = biological target: BC resistance protein (BCRP/ABCG2) (Homo sapiens, UniProt Q9UNQ0); settings: cited from earlier work
# BC resistance protein (BCRP/ABCG2), sequence (Q9UNQ0 whole entry): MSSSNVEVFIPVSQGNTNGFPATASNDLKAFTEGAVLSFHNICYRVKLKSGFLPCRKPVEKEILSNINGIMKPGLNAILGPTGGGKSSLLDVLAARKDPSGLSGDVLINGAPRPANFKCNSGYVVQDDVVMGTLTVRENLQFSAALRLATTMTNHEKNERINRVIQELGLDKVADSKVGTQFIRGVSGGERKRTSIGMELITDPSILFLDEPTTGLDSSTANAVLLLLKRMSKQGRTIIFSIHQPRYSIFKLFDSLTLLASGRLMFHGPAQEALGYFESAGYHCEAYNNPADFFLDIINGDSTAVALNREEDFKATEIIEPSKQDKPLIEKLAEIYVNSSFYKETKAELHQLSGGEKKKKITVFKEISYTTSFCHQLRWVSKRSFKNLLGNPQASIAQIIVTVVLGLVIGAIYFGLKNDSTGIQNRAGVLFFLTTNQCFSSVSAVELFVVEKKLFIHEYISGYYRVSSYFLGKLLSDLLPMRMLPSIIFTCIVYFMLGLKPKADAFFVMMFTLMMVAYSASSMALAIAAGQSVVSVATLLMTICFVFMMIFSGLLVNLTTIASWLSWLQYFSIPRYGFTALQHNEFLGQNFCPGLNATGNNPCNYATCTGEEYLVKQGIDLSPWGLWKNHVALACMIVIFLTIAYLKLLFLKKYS
# [16] = tested on: APP; settings: AD mouse cells; cited from earlier work
# [17] = tested on: MDA-MB-241 and ZR751 BC cells; settings: cited from earlier work
# [18] = randomized blinded n-of-1 PK/PD study: FPLC of morning urine; type: in vivo; settings: oral intake in the evening
# Description: The substances compared were • HP-α-CD, • the HP-α-CD/sodium caprate clathrate • a mixture of the HP-α-CD clathrate with the same amount of sodium caprate clathrate, also known as C-10 fatty acid, capric acid, decanoic acid. • a mixture of the HP-α-CD clathrate with the oily suspension proposed by (Tuvia S, Pelled D, et al. (2014) Pharmaceutical Research 31:2010-21).
# Six samples per substance were taken.
# The samples were taken in the evening before bed-time and urine samples were taken
# Unexpectedly, however, PA (675) and SM (650) are not reduced and neither are lyso-phospholipids (460-550).
# [19] = cited from earlier work
# [20] = tested on: BCa; experiment: BCa mice: tumor volume by treatment; type: in vivo; settings: Day*Treatment effect
# [21] = tested on: Caco-2 cells; settings: Caco-2 cells; cited from earlier work
# [22] = tested on: unesterified cholesterol (UC) storage; settings: 3-week-old Npc1-/- mice, dorsal neocortex, filipin; cited from earlier work
# [23] = randomized n-of-1 dose escalation study: excretion of phospholipids into urine after oral administration; type: in vivo, human; settings: for Excretion of phospholipids into urine, adj (expected level in healthy subjects subtracted) / Excretion of phospholipids into urine, adj per g dose / Excretion of phospholipids into urine, avg / Excretion of phospholipids into urine, single measurements: within 8 h
# Experimental: An randomized n-of-1 dose escalation study was conducted to assess the activity of a clathrate of HP-α-CD and sodium caprate (C-10 fatty acid, capric acid, decanoic acid) in extracting phospholipids from serum into urine.
substance,measurement,setting,value
methyl-β-cyclodextrin [MβCD],LPC or FFA mediated surfactant inhibition,[1],reversed
same,toxicity on BBB in vitro,[2],similar
same,invasion activity,[3],suppressed invasion activity
same,co-location of α-synuclein with the cell membrane,[4],dramatically reduced
same,number of lung metastases,[5],reduced the number of lung metastases
same,level of a-syn in the membrane fraction and detergent-insoluble fraction,[6],reduced the level of a-syn
same,cholesterol accumulation,[7],most potent
same,endocytosis and migration,[8],inhibited
same,growth of primary effusion lymphoma (PEL),[9],inhibited growth
same,protection of A2E against oxidation,[10],protect A2E against oxidation
same,internalization of exosomes containing integrins,[11],inhibited
same,efficacy in a mouse model of BC,[12],effective
same,secretion of Aβ,[13],inhibits secretion
same,accumulation of α-synuclein in neuronal cell body and synapses,[14],reduced accumulation
same,decrease in activity of BC resistance protein (BCRP/ABCG2),[15],40%
same,APPsα levels in the medium,[16],increased
same,APPsβ levels in the medium,[16],did not change
same,levels of intracellular APPsβ,[16],decrease
same,levels of α secretase cleavage products C83,[16],increase
same,spheroid migration and invasion,[17],inhibited
2-hydroxypropyl-α-cyclodextrin [HP-α-CD],BBB breakdown,[2],2.5 mM
same,recovery of HP-α-CD from morning urine (resorption),[18],not excreted
same,Solubility in water,[19]; Table 1,>500 g/L
same,Solubility in water,[19]; Table 3,~500^a g/l
same,Tumor Volume,[20],effective
same,cytotoxicity,[21],less cytotoxic than α-CD
same,UC storage in brain cells,[22],clearly reduced
same,"Excretion of phospholipids into urine, adj (expected level in healthy subjects subtracted)",[23]; oral dose 18 g,1.05 mM
same,"Excretion of phospholipids into urine, adj per g dose",[23]; oral dose 18 g,0.06 mM/g
same,"Excretion of phospholipids into urine, avg",[23]; oral dose 18 g,3.87 mM
same,"Excretion of phospholipids into urine, single measurements",[23]; oral dose 18 g,3.8 mM and 3.5 mM and 4.3 mM
same,"Excretion of phospholipids into urine, adj (expected level in healthy subjects subtracted)",[23]; oral dose 22 g,2.11 mM
same,"Excretion of phospholipids into urine, adj per g dose",[23]; oral dose 22 g,0.10 mM/g
same,"Excretion of phospholipids into urine, avg",[23]; oral dose 22 g,4.93 mM
same,"Excretion of phospholipids into urine, single measurements",[23]; oral dose 22 g,5.2 mM and 4.4 mM
same,"Excretion of phospholipids into urine, adj (expected level in healthy subjects subtracted)",[23]; oral dose 26 g,4.05 mM
same,"Excretion of phospholipids into urine, adj per g dose",[23]; oral dose 26 g,0.16 mM/g
same,"Excretion of phospholipids into urine, avg",[23]; oral dose 26 g,6.87 mM
same,"Excretion of phospholipids into urine, single measurements",[23]; oral dose 26 g,7.2 mM and 6.3 mM and 7.1 mM
same,"Excretion of phospholipids into urine, adj (expected level in healthy subjects subtracted)",[23]; oral dose 30 g,4.65 mM
same,"Excretion of phospholipids into urine, adj per g dose",[23]; oral dose 30 g,0.15 mM/g
same,"Excretion of phospholipids into urine, avg",[23]; oral dose 30 g,7.47 mM
same,"Excretion of phospholipids into urine, single measurements",[23]; oral dose 30 g,7.5 mM and 6.8 mM and 8.1 mM
same,"Excretion of phospholipids into urine, adj (expected level in healthy subjects subtracted)",[23]; oral dose 36 g,5.75 mM
same,"Excretion of phospholipids into urine, adj per g dose",[23]; oral dose 36 g,0.16 mM/g
same,"Excretion of phospholipids into urine, avg",[23]; oral dose 36 g,8.57 mM
same,"Excretion of phospholipids into urine, single measurements",[23]; oral dose 36 g,8.2 mM and 8.8 mM and 8.7 mM
same,"Excretion of phospholipids into urine, adj (expected level in healthy subjects subtracted)",[23]; oral dose 44 g,4.88 mM
same,"Excretion of phospholipids into urine, adj per g dose",[23]; oral dose 44 g,0.11 mM/g
same,"Excretion of phospholipids into urine, avg",[23]; oral dose 44 g,7.70 mM
same,"Excretion of phospholipids into urine, single measurements",[23]; oral dose 44 g,8.0 mM and 7.6 mM and 7.5 mM
same,side effect observed,"[23]; oral, only at the highest (44 g) dose",softening of stool
